Experimental data from patent US20230241037A1, “CROSS-LINKED MEDICATION FOR TREATMENT OF CORONAVIRAL INFECTION AND METHOD OF TREATMENT” (1GLOBE HEALTH INSTITUTE, NANJING, priority 2020, published 2023).

Legend:
[1] = Standard CCK-8 cytotoxicity assay; format: cell-based; details: African green monkey, Vero E6 cells, 48 hours incubation
Description: Vero E6 African green monkey kidney cell line was obtained from American Type Culture Collection (ATCC, No. 1586) and maintained in MEM medium (MEM; Gibco Invitrogen) supplemented with 10% fetal bovine serum (FBS; Gibco Invitrogen) at 37° C. in an atmosphere of 5% CO2.
Standard CCK-8 assays were performed to measure the cytotoxic effect of the drug candidates on Vero E6 cells, which was performed in accordance with the manufacturer's instructions (Beyotime, China).

[2] = test system: SARS-CoV-2; test: microbe, parasite or virus in culture; format: cell-based; details: for EC50: Severe acute respiratory syndrome coronavirus 2, Vero C1008, Vero E6 cells, MOI 0.05, 1 hour pretreatment, viral RNA in supernatant 48 hours post infection; for SI (selectivity index): from the CC50 and EC50 values in Vero E6 cells

Structure (SMILES)	CC50 at 48 h [1] [µM]	EC50 [2] [µM]	SI (selectivity index) [2]
CC(=O)Oc1ccccc1C(=O)Nc1ncc([N+](=O)[O-])s1 [NTZ, o-[N-(5-nitro-1,3-thiazol-2-yl)carbamoyl]phenol acetate)]	36.8	2.1	17.5
NC(=O)c1ncn([C@@H]2O[C@H](CO)[C@@H](O)[C@H]2O)n1 [RBV, 1-[(2R, 3R, 4S, 5R)-3,4-dihydroxy-5-(hydroxymethyl)oxolan-2-yl]-1H-1,2,4-triazole-3-carboxamide]	> 400	109	>3.7
